# Measured values as given in patent US20020115724A1, “Methods and agents for inhibiting protein aging” (priority 1985, published 2002).
# Structures can show the parent of a compound that is named as a salt.
# How the values were obtained:
# gelatin (collagen) = assay: Protein trapping: radioiodinated albumin bound to gelatin (collagen) agarose beads with glucose-6-phosphate; assay type: biochemical; conditions: agent 200 mN, 400 mN glucose-6-phosphate, two weeks, 37° C.
# Description: To more precisely measure the effect of the agents on the inhibition of protein crosslinking, an assay system was devised to measure the extent of in vitro binding of a soluble protein to an insoluble protein. This assay system mimics the events which occur in tissues in which serum proteins become bound to proteins in extravascular matrix and which lead to accumulation of protein and narrowing of vessel lumina in several other tissues. These events in vivo give rise to kidney disease and atherosclerotic disease, and lead to the pathologies associated with diabetes and aging.
# To measure protein trapping (i.e., binding or accumulation), gelatin (collagen) was coupled to activated agarose beads (Affigel 10, Bio-Red Laboratories) by routine methods. After coupling, all remaining active sites on the beads were quenched by reaction with glycine ethyl ester.
# The beads were incubated for two weeks with bovine serum albumin and 400 mN glucose-6-phosphate, a more reactive form of glucose which forms early glycosylation products with proteins more rapidly than does glucose. […] The bovine serum albumin was radioiodinated so that the amount which became bound to the beads could be measured. […]
# After a two-week incubation of the reaction mixtures at 37° C., the beads were washed extensively with chaotropic agents and the covalently bound radioactivity was determined. […]
# calf skin collagen = assay: Calf skin collagen crosslinking by glucose: solubilization in 2% sodium dodecyl sulfate; assay type: biochemical; conditions: 140 mM glucose, 200 mM aminoguanidine, 3 weeks, 35° C.
# Method: As a further evaluation of the compound aminoguanidine as a model for the prevention of protein trapping, crosslinking and formation of advanced glycosylation end products, the following experiment using calf skin collagen was performed. Collagen is a protein in the skin responsible for the suppleness of skin, and crosslinking leads to wrinkling, decreased elasticity, reduced susceptibility to proteolytic degradation, and other changes.
# Collagen from samples of calf skin were extracted into acetic acid and then precipitated with 0.6 M sodium chloride. These procedures removed from the solution skin collagen that was already permanently crosslinked or denatured. Native collagen fibrils were reformed by dialysis against 0.02M phosphate buffer, and these were incubated for 3 weeks at 35° C. in the presence of 140 mM glucose and with or without 200 mM aminoguanidine. After incubation, the samples were dialyzed and the degree of crosslinking was determined by two methods. First, the amount of reacted collagen which could be solubilized by treatment in 2% sodium dodecyl sulfate at 100° C. was measured.
# normal and diabetic rats = assay: IgG bound to glomerular basement membranes, enzyme immunoassay; assay type: in vivo, rat; conditions: 25 mg/kg daily intraperitoneal, 16 weeks
# Method: To measure the level of advanced glycosylation end products in vivo, the kidneys of rats were examined for serum proteins which had become attached to glomerular basement membranes. This was determined to be a good model in which to study this process as it is known that significant kidney pathology occurs in untreated diabetes as a result of the buildup of extravasated plasma protein in the extravascular matrix in this organ.
# The experiment consisted of giving both normal and diabetic rats daily intraperitoneal doses of the agent aminoguanidine hydrochloride at a dose of 25 mg per kilogram of body weight, for a period of 16 weeks. […] Diabetes was induced prior to drug therapy with a single dose of streptozotocin. Control animals, both diabetic and normal, received no drug.
# At the end of the agent therapy, animals were sacrificed and the kidneys were removed. Each organ was removed from its capsule and the medulla was removed. […]
# After overnight incubation to allow the antibody to bind to any IgG crosslinked to the glomerular basement membranes, the membranes were pelleted by centrifugation at 3200 rpm for five minutes and were washed free of the unbound antibody-enzyme conjugate with four rinses with PBS plus Tween followed by three rinses with distilled water. […] The reaction was stopped with the addition of 0.2 mL of M sodium hydroxide, and the absorbance at 400 nm was measured.
# BB/Worcester rat = assay: Tail tendon collagen solubility (pepsin), BB/Worcester rats; assay type: in vivo; conditions: 6 months; for Collagen Solubility: tail tendon
# Method: Streptozotocin-diabetic male Lewis rats were treated for a 9-month time period with daily doses of aminoguanidine hydrochloride of 0, 6.25, 12.5, 25, and 50 mg/kg/day. After the treatment period, collagen in tail tendon fiber was subjected to solubility determination. Ten mg samples were incubated with gentle rocking for 5 hours at 4° C. in 5 ml of 0.5M acetic acid containing 1 mg pepsin. The samples were then centrifuged at 50,000× g for 1 hour, and the soluble and insoluble fraction separated by decanting. Each fraction was hydrolyzed in 6N HCl and total hydroxyproline measured.
# The effect of aminoguanidine administration on collagen cross-linking was examined in a genetically-diabetic animal model, the BB/Worcester rat. Once the animals become diabetic, daily insulin injections are essential for survival. Glucose levels are maintained at a moderate level (250-350 mg %), much lower than in the streptozotocin-diabetic animals (>500 mg %).
# Diabetic and non-diabetic controls were treated orally with aminoguanidine hydrochloride at 12.5 and 50 mg/kg/day for 6 months. Control animals were dosed with water only. Tail tendon collagen solubility was then determined by the pepsin method described in Example IX.
compound,measurement,setting,value
N=C(N)NN [aminoguanidine hydrochloride],amount of protein trapping (radiolabeled albumin bound to collagen beads),gelatin (collagen),greatly reduced
same,solubility of reacted collagen in 2% sodium dodecyl sulfate at 100° C.,calf skin collagen,as soluble as collagen incubated in buffer alone
same,IgG bound to glomerular basement membranes,normal and diabetic rats; diabetic rats,the same low level of IgG in normal animals
same,IgG bound to glomerular basement membranes,normal and diabetic rats; normal rats,about the same low level
same,prevention of the diabetes-induced fall in tail tendon collagen solubility,BB/Worcester rat; 12.5 and 50 mg/kg/day orally,"prevented significantly, in a dose-dependent manner"
same,Collagen Solubility,"BB/Worcester rat; Diabetic, 12.5 mg/kg/day orally",66.7 ± 1.2%
same,Collagen Solubility,"BB/Worcester rat; Diabetic, 50 mg/kg/day orally",75.9 ± 0.4%
same,Collagen Solubility,"BB/Worcester rat; Normal, 50 mg/kg/day orally",88.2 ± 0.2%
